Experimental data: patent publication US8071592B2 (priority 2006, dated 2011)
Counter-ions that a name gives are not always drawn.

These compounds were tested on Gram-positive organisms (Staphylococcus aureus, Streptococcus pneumoniae, Streptococcus pyogenes, Enterococcus faecalis, Enterococcus faecium) and … (assay: not given). Conditions: against a strain of at least one of the organisms listed; tested in at least one exemplified salt form.
Assay type: cell-based

With CC(C)(O)c1c(F)cnc2ccc(=O)n(CCN3CCC(NCc4ccc5c(n4)NC(=O)CO5)CC3)c12 [Example 183] as the compound, how does the MIC read?
Its MIC is 16 µg/mL.

Which MIC does the source give for COc1ccc2ncc(=O)n(CCN3C[C@H](CNCc4ccn5ccc(=O)nc5c4)[C@H](O)C3)c2n1 [Example 272] here?
Its MIC is > 16 µg/mL.

What follows are compounds tested on Mycobacterium tuberculosis H37Rv (assay: Mycobacterium tuberculosis H37Rv Inhibition Assay (resazurin, MIC)). Conditions: ATCC 25618 / H37Rv, 144 h, H37Rv strain (ATCC25618), Middlebrook 7H9+ADC medium, six days at 37° C., resazurin fluorescence after 48 hours, read-out: MIC value.
Assay type: cell-based

For COc1ccc2ncc(=O)n(CCN3C[C@H](CNCc4cc5c(cn4)OCCO5)[C@@H](O)C3)c2n1 [Example 225], which MIC is on record?
The MIC was ≤ 4 µg/mL.

With O=c1ccc2ccccc2n1CCN1CCC(NCc2cc3ccccc3o2)CC1 [Example 288] as the compound, how does the MIC read?
The MIC was ≤ 4 µg/mL.

For COc1ccc2ccc(=O)n(CCN3CCC(NCc4ccc5nnn(C)c5c4)CC3)c2c1 [Example 302], which MIC is on record?
The MIC was ≤ 4 µg/mL.

How did the MIC turn out when O=c1cnc2ccc(F)cc2n1CCN1CCC(NCc2cc3c(cn2)OCCO3)CC1 [Example 20, 1-(2-{4-[(2,3-dihydro[1,4]dioxino[2,3-c]pyridin-7-ylmethyl)amino]-1-piperidinyl}ethyl)-7-fluoro-2(1H)-quinoxalinone Dihydrochloride] was run?
Its MIC is ≤ 4 µg/mL.

COc1ccc2ncc(=O)n(CCN3CCC(NCc4cc5c(cn4)OCCO5)CC3)c2n1 [Example 37, 4-(2-{4-[(2,3-dihydro[1,4]dioxino[2,3-c]pyridin-7-ylmethyl)amino]-1-piperidinyl}ethyl)-6-(methyloxy)pyrido[2,3-b]pyrazin-3(4H)-one Dihydrochloride] was tested. Which MIC did it give?
Its MIC is ≤ 4 µg/mL.

With O=c1ccc2ncc(F)cc2n1CCN1CCC(NCc2cc3c(cn2)OCCO3)CC1 [Example 7, 1-(2-{4-[(2,3-Dihydro[1,4]dioxino[2,3-c]pyridin-7-ylmethyl)amino]-1-piperidinyl}ethyl)-7-fluoro-1,5-naphthyridin-2(1H)-one Hydrochloride] as the compound, how does the MIC read?
The MIC was ≤ 4 µg/mL.

With O=c1cnc2ccc(F)cc2n1CCN1CC[C@H](NCc2cc3c(nn2)OCCO3)[C@H](O)C1 (single isomer, unassigned) [Example 193] as the compound, how does the MIC read?
Its MIC is ≤ 4 µg/mL.

With O=c1cnc2c(F)cc(F)cc2n1CCN1CCC(NCc2cc3c(nn2)OCCO3)CC1 [Example 120] as the compound, how does the MIC read?
The MIC was ≤ 4 µg/mL.

With Cl.O=c1ccc2ccc(F)cc2n1CCN1CCC(NCc2cc3c(cn2)OCCO3)CC1 [Example 2, 1-(2-{4-[(2,3-dihydro[1,4]dioxino[2,3-c]pyridin-7-ylmethyl)amino]-1-piperidinyl}ethyl)-7-fluoro-2(1H)-quinolinone Hydrochloride] as the compound, how does the MIC read?
Its MIC is ≤ 4 µg/mL.

How did the MIC turn out when O=c1ccc2ncccc2n1CCN1CCC(NCc2cc3ccccc3o2)CC1 [Example 282] was run?
Its MIC is ≤ 4 µg/mL.

How did the MIC turn out when O=c1ccc2ccc(F)cc2n1CCN1CCC(NCc2nc3ccccc3s2)CC1 [Example 287] was run?
Its MIC is ≤ 4 µg/mL.

How did the MIC turn out when O=c1c(F)cc2ccc(F)cc2n1CCN1CCC(NCc2cc3c(cn2)OCCO3)CC1 [Example 180] was run?
Its MIC is ≤ 4 µg/mL.

With O=C1CSc2ccc(CNC[C@@H]3C[C@H](O)CN(CCn4c(=O)ccc5ccc(F)cc54)C3)nc2N1 (racemic) [Example 158] as the compound, how does the MIC read?
Its MIC is ≤ 4 µg/mL.

How did the MIC turn out when O=c1cnc2ccc(F)cc2n1CCN1CCC(NCc2cc3c(cn2)OCC3)CC1 [Example 38, 1-(2-{4-[(2,3-dihydrofuro[2,3-c]pyridin-5-ylmethyl)amino]-1-piperidinyl}ethyl)-7-fluoro-2(1H)-quinoxalinone Dihydrochloride] was run?
Its MIC is ≤ 4 µg/mL.

With COc1ccc2ccc(=O)n(CCN3CCC(NCc4cc5c(nn4)OCCO5)CC3)c2n1 [Example 17, 1-(2-{4-[(6,7-dihydro[1,4]dioxino[2,3-c]pyridazin-3-ylmethyl)amino]-1-piperidinyl}ethyl)-7-(methyloxy)-1,8-naphthyridin-2(1H)-one Dihydrochloride] as the compound, how does the MIC read?
Its MIC is ≤ 4 µg/mL.

Which MIC does the source give for COc1cnc2ncc(=O)n(CCN3CCC(NCc4cc5c(cn4)OCCO5)CC3)c2c1.O=CO.O=CO [Example 51B, 1-(2-{4-[(2,3-dihydro[1,4]dioxino[2,3-c]pyridin-7-ylmethyl)amino]-1-piperidinyl}ethyl)-7-(methyloxy)pyrido[2,3-b]pyrazin-2(1H)-one diformate] here?
The MIC was ≤ 4 µg/mL.

For COc1ccc2ncc(=O)n(CCN3C[C@H](CNCc4cc5c(cn4)OCCO5)[C@H](O)C3)c2c1 [Example 226], which MIC is on record?
The MIC was ≤ 4 µg/mL.

O=c1ccc2ccccc2n1CCN1CCC(NCc2cc3cc(Cl)ccc3s2)CC1 [Example 289] was tested. Which MIC did it give?
The MIC was ≤ 4 µg/mL.

Same assay, conditions: ATCC 25618 / H37Rv, 144 h, read-out: MIC value, H37Rv strain (ATCC25618), Middlebrook 7H9+ADC medium, six days at 37° C., resazurin fluorescence after 48 hours

O=c1ccc2ccc(F)cc2n1CCN1CC[C@@H](O)[C@@H](CNCc2cc3c(cn2)OCCO3)C1 [Example 138, 1-[2-((3S,4R)-3-{[(2,3-Dihydro[1,4]dioxino[2,3-c]pyridin-7-ylmethyl)amino]methyl}-4-hydroxy-1-piperidinyl)ethyl]-7-fluoro-2(1H)-quinolinone Dihydrochloride] was tested. Which MIC did it give?
The MIC was ≤ 4 µg/mL.

Cc1cc(=O)n(CCN2CCC(NCc3cc4c(cn3)OCCO4)CC2)c2cc(F)ccc12 [Example 131, 1-(2-{4-[(2,3-Dihydro[1,4]dioxino[2,3-c]pyridin-7-ylmethyl)amino]-1-piperidinyl}ethyl)-7-fluoro-4-methyl-2(1H)-quinolinone Dihydrochloride] was tested. Which MIC did it give?
Its MIC is ≤ 4 µg/mL.

For COc1ccc2ccc(=O)n(CCN3C[C@H](CNCc4cc5c(cn4)OCCO5)[C@H](O)C3)c2c1 [Example 74, 1-[2-((3S,4S)-3-{[(2,3-dihydro[1,4]dioxino[2,3-c]pyridin-7-ylmethyl)amino]methyl}-4-hydroxy-1-pyrrolidinyl)ethyl]-7-(methyloxy)-2(1H)-quinolinone Hydrochloride], which MIC is on record?
Its MIC is ≤ 4 µg/mL.

How did the MIC turn out when O=c1ccc2c(F)cc3c(c2n1CCN1CCC(NCc2cc4c(cn2)OCCO4)CC1)OCCO3 [Example 57, 10-(2-{4-[(2,3-dihydro[1,4]dioxino[2,3-c]pyridin-7-ylmethyl)amino]-1-piperidinyl}ethyl)-6-fluoro-2,3-dihydro[1,4]dioxino[2,3-h]quinolin-9(10H)-one hydrochloride] was run?
The MIC was ≤ 4 µg/mL.

For COc1ccc2ccc(=O)n(CCN3C[C@@H](CNCc4ccc5c(n4)NC(=O)CO5)[C@@H](O)C3)c2c1 [Example 53, 6-({[((3R,4R)-4-hydroxy-1-{2-[7-(methyloxy)-2-oxo-1(2H)-quinolinyl]ethyl}-3-pyrrolidinyl)methyl]amino}methyl)-2H-pyrido[3,2-b][1,4]oxazin-3(4H)-one dihydrochloride], which MIC is on record?
The MIC was ≤ 4 µg/mL.

Same assay, conditions: ATCC25618|H37RV, 144 h, H37Rv strain (ATCC25618), Middlebrook 7H9+ADC medium, six days at 37° C., resazurin fluorescence after 48 hours, read-out: MIC value

O=c1ccc2ncc(F)cc2n1CCN1CCC(NCc2cc3c(nn2)OCCO3)CC1 [Example 9, Hydrochloride] was tested. Which MIC did it give?
The MIC was ≤ 4 µg/mL.
